Reference: US4230719A, “Novel 2-[4-(3-methyl-2-thienyl)phenyl]propionic acid and pharmaceutically acceptable salt thereof and method for treating symptoms of inflammation and pain” (Toyama Chemical Co., Ltd., priority 1977, dated 1980)
Read-outs that look alike come from different tables or passages of the source.

What was measured:
Vascular permeability [1] = experiment: Vascular permeability in mice (Whittle's method); format: in vivo, mouse (ddY strain, male); settings: for Inhibition: dye leakage; for ED30: po
Description: (i) Vascular permeability in mice (Whittle's method)
The test compound was orally administered to each ddY strain male mouse (weighing each about 20 g). After 20 minutes, 0.1 ml/10 g of a 4%(Wt/V) solution of Pontamine Sky Blue in physiological saline was intravenously injected and 10 minutes thereafter 0.1 ml/10 g of a 0.7%(V/V) solution of acetic acid in physiological saline was injected intraperitoneally. After 30 minutes, the mice were killed by suffocation with chloroform. After immediate laparotomy, the dye leaked into the peritoneal cavity was washed out with distilled water. The washings were made up with water to 30 ml and the absorbance at 620 mμ was measured. The amount of leaked dye per 20 g of mouse weight was compared.

Vascular permeability [2] = experiment: Vascular permeability in rat (Whittle's method); format: in vivo, rat (Wistar strain, male); settings: for ED30: po
Description: (ii) Vascular permeability in rat (Whittle's method)
The test compound was orally administered to each Wistar strain male rat (weighing about 150 g) which had been fasted overnight. After 55 minutes, 0.5 ml of a 0.5% Evans Blue solution was intravenously injected. Five minutes thereafter, 0.2 ml/100 g of a 3%(V/V) acetic acid solution was intraperitoneally injected. After 60 minutes from the injection of the acetic acid solution, the rats were killed by suffocation with chloroform. After immediate laparotomy, the dye leaked into the peritoneal cavity was washed out with physiological saline. The washings were made up with the saline to 30 ml and the absorbance at 640 mμ was measured to examine the effect of the test compounds by comparing the amounts of leaked dye per rat with one another.

[3] = test system: Carrageenin-induced edema; experiment: Carrageenin-induced edema; format: in vivo, rat (Donryu strain, male); settings: Rattus norvegicus, po, read-out: Inhibitory percent of swelling
Description: (iii) Carrageenin-induced edema
Each of the 6 Donryu strain male rats per group (each weighing about 140 g), which had been fasted overnight, was orally loaded with 4 ml of water and, after 30 minutes, the test compound was orally administered thereto. Thirty minutes thereafter, a 1%(Wt/V) solution of carrageenin in physiological saline was subcutaneously injected into the subplantar region of the left hind paw. At a time interval of one hour, starting from the end of the first hour till the end of the fifth hour after injection of carrageenin, the paw volume was measured by means of a manometer and pressure transducer. By comparison with the percent increase in swelling of the control group of rats to which a 0.5%(V/V) solution of Tween 80 had been administered, the mean inhibitory percent in 5 hours of swelling was calculated by the following equation: [formula]

Adjuvant arthritis = experiment: Adjuvant arthritis; format: in vivo, rat (Sprague-Dawley strain, male); settings: 1 mg/kg p.o./day, mean during one week
Description: A suspension containing 6 mg/ml of killed and dried Mycobacterium butyricum in liquid paraffin was subcutaneously injected into the subplantar region of the left hind paw of Sprague-Dawley strain male rats (weighing 180 to 200 g) in a proportion of 0.1 ml/rat. After 14 days, the rats having inflammatory paws of similar volumes were selected and the test compound was orally administered to the rats repeatedly at the rate shown in Table 4 during one week and the mean inhibitory percent of swelling during one week was determined.

[4] = test system: phenylbenzoquinone writhing; experiment: Analgesic activity, phenylbenzoquinone method in mouse; format: in vivo, mouse (ddY strain, male); settings: for Frequency of writhing, mean ± S.E.: during 10 minutes; for inhibition in vivo at 5 mg/kg / inhibition in vivo at 10 mg/kg / inhibition in vivo at 20 mg/kg / ED50: po; for inhibition in vivo at 5 mg/kg / inhibition in vivo at 10 mg/kg / inhibition in vivo at 20 mg/kg: 10 min, read-out: Inhibition
Description: (i) Phenylbenzoquinone method in mouse
The test compound was orally administered to each ddY strain male mouse (weighing 22±2 g; 8 mice per group). […] The frequency of writhing during 10 minutes from 5-minutes after the injection of phenylbenzoquinone was measured and compared with that of a control group to which a 0.5% Tween 80 solution was administered. The percent inhibition was calculated by the following equation: [formula]

[5] = test system: pain threshold (brewer's yeast, hind paw); experiment: Analgesic activity, Randall-Selitto method in rat; format: in vivo, rat (Wistar strain, male); settings: for Inhibition: 100% = pain threshold raised by 150 g; for ED50: po
Description: (ii) Randall-Selitto method in rat
After one hour, the test compound was orally administered. One hour thereafter, the pain threshold value was measured four times at a time interval of one hour. The mean value of four values obtained was taken as the pain threshold value of each group of rats. The activity of the drug was assumed to be 100% when the pain threshold value was raised by 150 g.

[6] = test system: Phenol Red (PSP) excretion; experiment: Uricosuric action (a), inhibition of Phenol Red (PSP) excretion; format: in vivo, rabbit (male)
Description: (a) The action was examined by the method of B. B. Brodie et al. who reported that the inhibitory action on Phenol Red (PSP) excretion correlates with the uricosuric action [Proc. Soc. Exp. Biol. Med., 86, 884 (1954)]. To a male rabbit weighing 2 to 3 kg was intraperitoneally administered the test compound. After 30 minutes, 75 mg/kg of a Phenol Red suspension was injected into the pinna vein of the rabbit and 30 minutes thereafter a blood sample was drawn from the pinna vein. The blood sample was centrifuged and the serum was diluted with physiological saline. The diluted serum was treated with 0.1 N NaOH to develop the color. The concentration of Phenol Red in the serum was determined from the absorbance at 560 mμ.

[7] = test system: fever (Mycobacterium butyricum); experiment: Antipyretic action; format: in vivo, rat (Wistar strain, female); settings: for ED1.0: po
Description: A suspension (0.6 mg/0.1 ml) of killed and dried Mycobacterium butyricum in liquid paraffin was subcutaneously injected in an amount of 0.1 ml into the subplantar region of the hind paw of each Wistar strain female rat weighing about 180 g. After 14 hours, the fevered rats were divided into groups, and each test compound was orally administered to each group to examine the antipyretic effect.

in vivo = settings: rat, po
[8] = test system: threshold value of pain due to pressure stimuli (tail); settings: for Analgesic effect: 100% = threshold raised by 160 g; for ED50: Mus musculus, po
[9] = Mus musculus, writhing, 5 mg/kg p.o.
[10] = Mus musculus, writhing, 10 mg/kg p.o.
[11] = Mus musculus, writhing, 20 mg/kg p.o.

| SMILES | Dye leakage (P.S.B.) mean ± S.E. (Vascular permeability [1]; 5 mg/kg p.o.) | Dye leakage (P.S.B.) mean ± S.E. (Vascular permeability [1]; 10 mg/kg p.o.) | Dye leakage (P.S.B.) mean ± S.E. (Vascular permeability [1]; 20 mg/kg p.o.) | Inhibition (Vascular permeability [1]; 5 mg/kg p.o.) | Inhibition (Vascular permeability [1]; 10 mg/kg p.o.) | Inhibition (Vascular permeability [1]; 20 mg/kg p.o.) | ED30 (Vascular permeability [1]; mouse, read-out: ED30) | Inhibition (Vascular permeability [2]; 0.5 mg/kg p.o.) | Inhibition (Vascular permeability [2]; 1 mg/kg p.o.) | Inhibitory percent of swelling (Adjuvant arthritis) | Frequency of writhing, mean ± S.E. ([4]; 5 mg/kg p.o.) | Frequency of writhing, mean ± S.E. ([4]; 10 mg/kg p.o.) | Frequency of writhing, mean ± S.E. ([4]; 20 mg/kg p.o.) | Inhibition ([5]; 1 mg/kg p.o.) | Inhibition ([5]; 5 mg/kg p.o.) | Inhibition ([5]; 25 mg/kg p.o.) | Mean decrease in temp. ([7]; 0.2 mg/kg p.o.) | Mean decrease in temp. ([7]; 1 mg/kg p.o.) | Mean decrease in temp. ([7]; 5 mg/kg p.o.) | ED50 [8] | further results |
| --- | --- | --- | --- | --- | --- | --- | --- | --- | --- | --- | --- | --- | --- | --- | --- | --- | --- | --- | --- | --- | --- |
| Cc1ccsc1-c1ccc(C(C)C(=O)O)cc1 (racemic) [Racemic compound, dl-2-[4-(3-methyl-2-thienyl)phenyl]propionic acid] | 262.0 ± 21.1 μg/20g | 211.0 ± 26.0 μg/20g | 166.8 ± 13.8 μg/20g | 18.3% | 34.2% | 48.0% | 8.5 mg/kg | 20.1% | 27.6% | 14.4% | 18.6 ± 4.5 | 11.8 ± 2.4 | 3.3 ± 0.9 | 44.3% | 45.2% | 66.9% | 0.52 °C | 1.20 °C | 1.70 °C | 7 mg/kg | Inhibition (Vascular permeability [2]; 5 mg/kg p.o.): 50.1%; ED30 (Vascular permeability [2]; rat, read-out: ED30): 1.1 mg/kg; inhibition in vivo at 1 mg/kg ([3]; 1 mg/kg p.o., mean in 5 hours): 21.2%; inhibition in vivo at 5 mg/kg ([3]; 5 mg/kg p.o., mean in 5 hours): 48.5%; inhibition in vivo at 5 mg/kg [4, 9]: 21.2%; inhibition in vivo at 10 mg/kg [4, 10]: 50%; inhibition in vivo at 20 mg/kg [4, 11]: 86%; ED50 ([4]; mouse, read-out: ED50): 9.7 mg/kg; ED50 ([5]; rat, read-out: ED50): 6.1 mg/kg; Concentration of PSP in serum, mean ± S.E. ([6]; 10 mg/kg i.p.): 166.7 ± 25.1 µg/mL; Concentration of PSP in serum, mean ± S.E. ([6]; 20 mg/kg i.p.): 249.3 ± 41.4 µg/mL; ED1.0 ([7]; rat, read-out: ED1.0): 0.66 mg/kg; LD50 (in vivo): 248 mg/kg; Analgesic effect ([8]; 2.5 mg/kg p.o.): 33%; Analgesic effect ([8]; 10 mg/kg p.o.): 50%; Analgesic effect ([8]; 40 mg/kg p.o.): 85% |
| Cc1ccsc1-c1ccc(C(C)C(=O)O)cc1 (single isomer, unassigned; isomer d) [d-Isomer, d-2-[4-(3-methyl-2-thienyl)phenyl]propionic acid] | 256.4 ± 15.9 μg/20g | 218.0 ± 14.3 μg/20g | 160.4 ± 10.3 μg/20g | 20.1% | 32.0% | 50.0% | 8.6 mg/kg | 28.1% | 43.3% | 21.6% | 14.5 ± 3.5 | 9.9 ± 2.6 | 5.4 ± 1.0 | 37.1% | 48.5% | 72.9% | 0.82 °C | 1.18 °C | 1.63 °C | 5.2 mg/kg | Inhibition (Vascular permeability [2]; 0.2 mg/kg p.o.): 14.2%; ED30 (Vascular permeability [2]; rat, read-out: ED30): 0.52 mg/kg; inhibition in vivo at 1 mg/kg ([3]; 1 mg/kg p.o., mean in 5 hours): 40%; inhibition in vivo at 5 mg/kg ([3]; 5 mg/kg p.o., mean in 5 hours): 57.2%; inhibition in vivo at 5 mg/kg [4, 9]: 38.6%; inhibition in vivo at 10 mg/kg [4, 10]: 58.1%; inhibition in vivo at 20 mg/kg [4, 11]: 77.1%; ED50 ([4]; mouse, read-out: ED50): 7.5 mg/kg; ED50 ([5]; rat, read-out: ED50): 4.4 mg/kg; Concentration of PSP in serum, mean ± S.E. ([6]; 10 mg/kg i.p.): 223.8 ± 3.9 µg/mL; Concentration of PSP in serum, mean ± S.E. ([6]; 20 mg/kg i.p.): 267.3 ± 18.0 µg/mL; ED1.0 ([7]; rat, read-out: ED1.0): 0.44 mg/kg; LD50 (in vivo): 230 mg/kg; Analgesic effect ([8]; 2.5 mg/kg p.o.): 38%; Analgesic effect ([8]; 10 mg/kg p.o.): 61%; Analgesic effect ([8]; 40 mg/kg p.o.): 80% |
| O=C(O)Cc1ccccc1Nc1c(Cl)cccc1Cl [Diclofenac sodium] | – | 227.0 ± 14.4 μg/20g | 205.3 ± 10.1 μg/20g | 5.4% | – | 36.0% | – | – | 5.4% | 10.9% | 21.4 ± 3.0 | 16.2 ± 3.1 | 10.9 ± 1.7 | 22.7% | 49.7% | 74.9% | 0.88 °C | 1.63 °C | 1.57 °C | 9.5 mg/kg | ED30 (Vascular permeability [1]; Mus musculus): 14 mg/kg; Inhibition (Vascular permeability [2]; 5 mg/kg p.o.): 30.2%; ED30 (Vascular permeability [2]; Rattus norvegicus): 4.8 mg/kg; inhibition in vivo at 1 mg/kg ([3]; 5 h): 6.4%; inhibition in vivo at 5 mg/kg ([3]; 5 h): 39.8%; ED50 ([4]; Mus musculus): 17.7 mg/kg; inhibition in vivo at 5 mg/kg ([4]; Mus musculus): 9.3%; inhibition in vivo at 20 mg/kg ([4]; Mus musculus): 53.8%; ED50 ([5]; Rattus norvegicus): 5.3 mg/kg; ED1.0 ([7]; Rattus norvegicus): 0.25 mg/kg; Analgesic effect ([8]; 5 mg/kg p.o.): 31%; Analgesic effect ([8]; 20 mg/kg p.o.): 71% |
